According to ChEMBL document CHEMBL5126573, “Scaffold modifications to the 4-(4,4-dimethylpiperidinyl) 2,6-dimethylpyridinyl class of HIV-1 allosteric integrase inhibitors” (Bioorg Med Chem, 2022):
pEC50: −log10 of the molar value.

Assays:
[1] = Metabolic stability in human liver microsomes assessed as half life; assay type: ADME, Microsome
[2] = Toxicity in human Huh-7 cells assessed as fold change in lipid droplet formation at 10 uM incubated for 72 hrs boron-dipyrromethene staining based by high content screening (HCS) fluorescence analysis relative to control; assay type: cell-based; conditions: huh-7, 72 h
[3] = Metabolic stability in rat liver microsomes assessed as half life; assay type: ADME, Microsome
[4] = AUC (0 to infinity) in Sprague-Dawley rat at 5 mg/kg, po; assay type: ADME, organism-based; parameters: time infinity, dose 5 mg/kg, route po; conditions: in vivo
[5] = Toxicity in rat H4-II-E cells assessed as fold change in lipid droplet formation at 10 uM incubated for 72 hrs boron-dipyrromethene staining based by high content screening (HCS) fluorescence analysis relative to control; assay type: cell-based
[6] = Cytotoxicity against human MT2 cells infected with HIV1 NLRep-Rluc harbouring polymorphic 124T/125T integrase; assay type: toxicity, cell-based; conditions: MT2 cells infected with HIV-1 NLRep-Rluc
[7] = system: Human immunodeficiency virus 1; assay: Antiviral activity against recombinant HIV1 NLRep-Rluc harbouring polymorphic 124T/125T integrase infected in human MT2 cells assessed as inhibition of virus growth in presence of fetal bovine serum by measuring luciferase activity after 5 days by Luciferase Assay; assay type: functional, organism-based; conditions: Human immunodeficiency virus 1, NLRep-Rluc, MT2, 120 h
[8] = system: Human immunodeficiency virus 1; assay: Antiviral activity against recombinant HIV1 NLRep-Rluc harbouring polymorphic 124N/125A integrase infected in human MT2 cells assessed as inhibition of virus growth in presence of fetal bovine serum by measuring luciferase activity after 5 days by Luciferase Assay; assay type: functional, organism-based; conditions: Human immunodeficiency virus 1, NLRep-Rluc, MT2, 120 h
[9] = Permeability of the compound at pH 7.4 by PAMPA assay; assay type: ADME; conditions: read-out: permeability
[10] = Permeability of the compound at pH 5.5 by PAMPA assay; assay type: ADME; conditions: read-out: permeability
[11] = Metabolic stability in Sprague-Dawley rat assessed as clearance at 1 mg/kg, iv; assay type: ADME, organism-based; conditions: in vivo
[12] = Oral bioavailability in Sprague-Dawley rat at 5 mg/kg; assay type: ADME, organism-based; conditions: in vivo
[13] = system: Human immunodeficiency virus 1; assay: Antiviral activity against recombinant HIV1 NLRep-Rluc harbouring polymorphic 124A/125A integrase infected in human MT2 cells assessed as inhibition of virus growth in presence of fetal bovine serum by measuring luciferase activity after 5 days by Luciferase Assay; assay type: functional, organism-based; conditions: Human immunodeficiency virus 1, NLRep-Rluc, MT2, 120 h

Compound: Cc1nc(C)c([C@H](OC(C)(C)C)C(=O)O)c(N2CCC(C)(C)CC2)c1-c1ccc(OCCc2ccc(F)cc2)cc1
- half-life [1]: > 2 h
- fold change (FC) [2]: 3.7
- half-life [3]: > 2 h
- AUC(0-inf) [4]: 14 µM·h
- fold change (FC) [5]: 4
- CC50 [6]: ≥ 18200 nM

Compound: Cc1nc2c(-c3ccc4c(c3)CCN(Cc3c(C)cccc3Cl)C4)c(N3CCC(C)(C)CC3)c([C@H](OC(C)(C)C)C(=O)O)c(C)n2n1
- pEC50 [7]: 8.22
- pEC50 [8]: 8.05
- Papp [9]: 48.3 ×10⁻⁶ cm/s
- Papp [10]: 35.2 ×10⁻⁶ cm/s
- clearance [11]: 13 mL/min/kg
- bioavailability [12]: 34%
- AUC(0-inf) [4]: 3.21 µM·h
- pEC50 [13]: 8.00
- CC50 [6]: ≥ 3000 nM

Compound: Cc1cn2c(C)c([C@H](OC(C)(C)C)C(=O)O)c(N3CCC(C)(C)CC3)c(-c3ccc(OCCc4ccc(F)cc4)cc3)c2n1
- half-life [1]: > 2 h
- pEC50 [7]: 9.10
- pEC50 [8]: 8.74
- Papp [9]: 43.8 ×10⁻⁶ cm/s
- Papp [10]: 38.7 ×10⁻⁶ cm/s
- clearance [11]: 40.7 mL/min/kg
- bioavailability [12]: 8%
- AUC(0-inf) [4]: 0.269 µM·h
- pEC50 [13]: 8.80
- CC50 [6]: ≥ 10300 nM

Compound: Cc1nc2c(-c3ccc4c(c3)CCN(c3ncnc5c3oc3ccccc35)C4)c(N3CCC(C)(C)CC3)c([C@H](OC(C)(C)C)C(=O)O)c(C)n2n1
- fold change (FC) [2]: 3.9
- pEC50 [7]: 8.41
- pEC50 [8]: 8.35
- Papp [9]: 75.2 ×10⁻⁶ cm/s
- Papp [10]: 101 ×10⁻⁶ cm/s
- clearance [11]: 2.8 mL/min/kg
- bioavailability [12]: 83%
- AUC(0-inf) [4]: 36.3 µM·h
- fold change (FC) [5]: 3.6
- pEC50 [13]: 8.28
- CC50 [6]: ≥ 3000 nM

Compound: Cc1c([C@H](OC(C)(C)C)C(=O)O)c(N2CCC(C)(C)CC2)c(-c2ccc3c(c2)CCN(c2ncnc4c2oc2ccccc24)C3)c2nccn12
- pEC50 [7]: 8.54
- pEC50 [8]: 8.34
- Papp [9]: 66.3 ×10⁻⁶ cm/s
- clearance [11]: 1 mL/min/kg
- bioavailability [12]: 9%
- AUC(0-inf) [4]: 12.1 µM·h
- pEC50 [13]: 8.35
- CC50 [6]: ≥ 3000 nM

Compound: Cc1c([C@H](OC(C)(C)C)C(=O)O)c(N2CCC(C)(C)CC2)c(-c2ccc(OCCc3ccc(F)cc3)cc2)c2cncn12
- pEC50 [7]: 7.84
- pEC50 [8]: 7.39
- pEC50 [13]: 7.47
- CC50 [6]: ≥ 18200 nM

Compound: Cc1c([C@H](OC(C)(C)C)C(=O)O)c(N2CCC(C)(C)CC2)c(-c2ccc(OCCc3ccc(F)cc3)cc2)c2cccn12
- pEC50 [7]: 7.56
- pEC50 [8]: 7.49
- pEC50 [13]: 7.42
- CC50 [6]: ≥ 18200 nM

Compound: Cc1c([C@H](OC(C)(C)C)C(=O)O)c(N2CCC(C)(C)CC2)c(-c2ccc(OCCc3ccc(F)cc3)cc2)c2nc(C(C)C)cn12
- pEC50 [7]: 8.92
- pEC50 [8]: 8.51
- pEC50 [13]: 8.54
- CC50 [6]: ≥ 10300 nM

Compound: Cc1c([C@H](OC(C)(C)C)C(=O)O)c(N2CCC(C)(C)CC2)c(-c2ccc(OCCc3ccc(F)cc3)cc2)c2nc(C3CC3)cn12
- pEC50 [7]: 8.38
- pEC50 [8]: 7.95
- pEC50 [13]: 7.97
- CC50 [6]: ≥ 10300 nM

Compound: Cc1c([C@H](OC(C)(C)C)C(=O)O)c(N2CCC(C)(C)CC2)c(-c2ccc3c(c2)CCN(c2ncnc4c2oc2ccccc24)C3)c2cnnn12
- fold change (FC) [2]: 2.7
- pEC50 [7]: 8.42
- pEC50 [8]: 8.19
- Papp [9]: 79 ×10⁻⁶ cm/s
- clearance [11]: 1.9 mL/min/kg
- bioavailability [12]: 33%
- AUC(0-inf) [4]: 21.7 µM·h
- fold change (FC) [5]: 1.3
- pEC50 [13]: 8.40
- CC50 [6]: ≥ 3000 nM

Compound: Cc1c([C@H](OC(C)(C)C)C(=O)O)c(N2CCC(C)(C)CC2)c(-c2ccc(OCCc3ccc(F)cc3)cc2)c2nc(CC(C)C)cn12
- half-life [1]: > 2 h
- pEC50 [7]: 8.92
- half-life [3]: > 2 h
- pEC50 [8]: 8.59
- clearance [11]: 44.6 mL/min/kg
- pEC50 [13]: 8.46
- CC50 [6]: ≥ 10300 nM

Compound: Cc1c([C@H](OC(C)(C)C)C(=O)O)c(N2CCC(C)(C)CC2)c(-c2ccc3c(c2)CCN(c2ncnc4c2oc2ccccc24)C3)c2ncnn12
- pEC50 [7]: 8.54
- pEC50 [8]: 8.29
- Papp [9]: 47.4 ×10⁻⁶ cm/s
- clearance [11]: 1.5 mL/min/kg
- bioavailability [12]: 37%
- AUC(0-inf) [4]: 30.7 µM·h
- pEC50 [13]: 8.30
- CC50 [6]: ≥ 3000 nM

Compound: Cc1c([C@H](OC(C)(C)C)C(=O)O)c(N2CCC(C)(C)CC2)c(-c2ccc(OCCc3ccc(F)cc3)cc2)c2ncnn12
- half-life [1]: > 2 h
- fold change (FC) [2]: 2.7
- pEC50 [7]: 8.62
- half-life [3]: > 2 h
- pEC50 [8]: 8.40
- Papp [9]: 65.4 ×10⁻⁶ cm/s
- Papp [10]: 160 ×10⁻⁶ cm/s
- clearance [11]: 11.9 mL/min/kg
- bioavailability [12]: 28%
- AUC(0-inf) [4]: 3.59 µM·h
- fold change (FC) [5]: 1.6
- pEC50 [13]: 8.34
- CC50 [6]: ≥ 18200 nM

Compound: Cc1c([C@H](OC(C)(C)C)C(=O)O)c(N2CCC(C)(C)CC2)c(-c2ccc(OCCc3ccc(F)cc3)cc2)c2cnnn12
- pEC50 [7]: 8.24
- pEC50 [8]: 7.83
- pEC50 [13]: 7.94
- CC50 [6]: ≥ 18200 nM

Compound: Cc1c([C@H](OC(C)(C)C)C(=O)O)c(N2CCC(C)(C)CC2)c(-c2ccc(OCCc3ccc(F)cc3)cc2)c2nc(C(F)(F)F)cn12
- pEC50 [7]: 8.28
- pEC50 [8]: 7.91
- pEC50 [13]: 7.98
- CC50 [6]: ≥ 10300 nM

Compound: Cc1c([C@H](OC(C)(C)C)C(=O)O)c(N2CCC(C)(C)CC2)c(-c2ccc(OCCc3ccc(F)cc3)cc2)c2nccn12
- half-life [1]: > 2 h
- fold change (FC) [2]: 3.3
- pEC50 [7]: 8.96
- half-life [3]: > 2 h
- pEC50 [8]: 8.72
- Papp [9]: 41 ×10⁻⁶ cm/s
- Papp [10]: 49.8 ×10⁻⁶ cm/s
- clearance [11]: 12.5 mL/min/kg
- bioavailability [12]: 13%
- AUC(0-inf) [4]: 1.48 µM·h
- fold change (FC) [5]: 1.9
- pEC50 [13]: 8.77
- CC50 [6]: ≥ 10300 nM

Compound: Cc1nc2c(-c3ccc(OCCc4ccc(F)cc4)cc3)c(N3CCC(C)(C)CC3)c([C@H](OC(C)(C)C)C(=O)O)c(C)n2n1
- half-life [1]: > 2 h
- pEC50 [7]: 8.89
- half-life [3]: > 2 h
- pEC50 [8]: 8.57
- clearance [11]: 20.1 mL/min/kg
- bioavailability [12]: 39%
- AUC(0-inf) [4]: 2.71 µM·h
- pEC50 [13]: 8.66
- CC50 [6]: ≥ 40000 nM

Compound: Cc1c([C@H](OC(C)(C)C)C(=O)O)c(N2CCC(C)(C)CC2)c(-c2ccc(OCCc3ccc(F)cc3)cc2)c2nncn12
- pEC50 [7]: 7.92
- pEC50 [8]: 7.86
- pEC50 [13]: 7.80
- CC50 [6]: ≥ 18200 nM

Compound: Cc1nc2c(C)c(N3CCC(C)(C)CC3)c([C@H](OC(C)(C)C)C(=O)O)c(C)n2n1
- pEC50 [7]: 6.68
- pEC50 [8]: 6.27
- pEC50 [13]: 5.92
- CC50 [6]: ≥ 3000 nM

Compound: Cc1c([C@H](OC(C)(C)C)C(=O)O)c(N2CCC(C)(C)CC2)c(-c2ccc(OCCc3ccc(F)cc3)cc2)c2ccnn12
- pEC50 [7]: 7.89
- pEC50 [8]: 7.58
- pEC50 [13]: 7.45
- CC50 [6]: ≥ 18200 nM

Compound: CCc1cn2c(C)c([C@H](OC(C)(C)C)C(=O)O)c(N3CCC(C)(C)CC3)c(-c3ccc(OCCc4ccc(F)cc4)cc3)c2n1
- half-life [1]: > 2 h
- pEC50 [7]: 9.00
- half-life [3]: > 2 h
- pEC50 [8]: 8.62
- Papp [9]: 34.3 ×10⁻⁶ cm/s
- clearance [11]: 57.3 mL/min/kg
- pEC50 [13]: 8.74
- CC50 [6]: ≥ 10300 nM
